The values that follow come from patent US10662174B2, “BTK inhibitor” (Hubei Bio-Pharmaceutical Industrial Technological Institute …, priority 2015, dated 2020).

Molecules are shown by their SMILES. Some results are limits rather than exact numbers.

T1 sequence (Q06187 whole entry): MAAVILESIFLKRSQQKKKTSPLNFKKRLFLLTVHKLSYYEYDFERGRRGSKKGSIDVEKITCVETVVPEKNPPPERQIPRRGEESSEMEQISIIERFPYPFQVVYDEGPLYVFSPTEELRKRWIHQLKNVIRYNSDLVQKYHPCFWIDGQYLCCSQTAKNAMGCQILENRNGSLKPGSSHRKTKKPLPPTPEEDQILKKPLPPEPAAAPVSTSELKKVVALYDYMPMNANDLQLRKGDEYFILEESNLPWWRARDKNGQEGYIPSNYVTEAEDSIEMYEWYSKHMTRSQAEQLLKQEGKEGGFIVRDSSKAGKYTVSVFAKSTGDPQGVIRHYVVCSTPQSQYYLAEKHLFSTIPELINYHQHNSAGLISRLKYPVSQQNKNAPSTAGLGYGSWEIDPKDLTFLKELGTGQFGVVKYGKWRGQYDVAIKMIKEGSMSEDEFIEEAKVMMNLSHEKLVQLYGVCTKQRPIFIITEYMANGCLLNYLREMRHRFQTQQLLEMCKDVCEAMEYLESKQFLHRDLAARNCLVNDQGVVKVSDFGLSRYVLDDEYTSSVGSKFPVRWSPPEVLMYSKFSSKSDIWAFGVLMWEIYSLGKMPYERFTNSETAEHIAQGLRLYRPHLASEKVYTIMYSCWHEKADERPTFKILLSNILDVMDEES

The assay concerns the target T1, BTK kinase (Homo sapiens, UniProt Q06187).
T1 construct: purchased Invitrogen PR5442A
The assay can be described thus: Assay of inhibition activity of BTK in vitro (HTRF kit, read on Envision). The assay is classed as biochemical. As to conditions: 1.0 nM BTK, 1 μM biotin-TK1 peptide, 20 μM ATP, 23° C., tested by Envision; read-out: BTK IC50. How it is done:
Assay of Inhibition Activity of BTK In Vitro
The inhibition of compounds on BTK kinase was evaluated by […] detected by Envision, using the IC50 value of the compounds as index.
BTK kinase: Invitrogen-PR5442A
HTRF Assay Kit: Cisbio-62TKOPEJ
Plate for compound preparation: Greiner-781280
Cisbio HTRF Kit: Cisbio-62TKOPEJ
Centrifuge: Eppendorf-5810R
Bravo: Agilent Technologies-Bravo
Gradient Dilution of Compounds: […]
The test compound was dissolved with DMSO to be of 1 mM as a stock solution. Such a stock solution was diluted with DMSO by 10-fold, thereby obtaining an initial solution in a concentration of […] which was added into wells at the second column in a plate. 20 μL DMSO was added to other wells using Bravo. Then, 10 μL of the initial solution was transferred from wells at the second column to wells at the third column, followed by mixing obtained solution in the wells at the third column, thereby obtain a first diluted solution in a concentration of 1/3 μM. Subsequently, 10 μL of the first diluted solution was further transferred from wells at the third column to wells at the fourth column, followed by mixing obtained solution in the wells at the fourth column, thereby obtain a second diluted solution in a concentration of 1/9 μM. Such a three-fold serial dilution was performed 10 times, with 11 solutions in series diluted concentrations and a final diluted solution in a concentration of 0.017 nM obtained.
All diluted solutions were further diluted by 25-fold with ultrapure water, thus obtain test solutions, which were equilibrated at r.t. for 30 min before use.
To 2.5 μL of test solution, which was pipetted into each well of Assay plate using Bravo, 5 μL kinase mixture was added using the multi-channel pipettor. The mixture was centrifuged at 1000 rpm for 20 s, followed by incubation at 23° C. for 30 min. The reaction was initiated by 2.5 μL ATP mixture which was pipetted into the wells by Multidrop.
The reaction mixture of BTK kinase (10 μL) included 1.0 nM BTK, 1 μM biotin-TK1 peptide and 20 μM ATP. The reaction buffer included 50 mM Hepes (pH7.5), 10 mM MgCl2 and 0.01 mM […]. The kinase mixture was reacted in incubator at 23° C. for 90 mim.
The reaction was stopped by adding 10 μL Detection Reagent to each well of Assay plate, and the plate was left in incubator at 23° C. for 1 h before read on Envision.
Data analysis: The IC50 values of compounds were calculated using Excel fit.
In general, IC50 refers to the concentration needed to halve the response being measured. Regarding `C=CC(=O)N[C@H]1CC[C@@H](n2nc(-c3ccc(Oc4ccccc4)cc3)c3c(N)n[nH]c(=O)c32)CC1` [Example 57], the IC50 was less than 100 nM.
Then `C=CS(=O)(=O)N[C@H]1CC[C@@H](n2nc(-c3ccc(Oc4ccccc4)cc3)c3c(N)n[nH]c(=O)c32)CC1` [Example 58], with less than 100 nM; and `CN(C)C/C=C/C(=O)N[C@H]1CC[C@@H](n2nc(-c3ccc(Oc4ccccc4)cc3)c3c(N)n[nH]c(=O)c32)CC1` [Example 59], with less than 100 nM; and `C=CC(=O)N1CC[C@@H](n2nc(-c3ccc(Oc4ccccc4)cc3)c3c(N)n[nH]c(=O)c32)C1` [Example 60], with less than 100 nM.
As to `CN(C)C/C=C/C(=O)N1CC[C@@H](n2nc(-c3ccc(Oc4ccccc4)cc3)c3c(N)n[nH]c(=O)c32)C1` [Example 61], the IC50 was less than 100 nM.
Regarding `C=CC(=O)NC1CCCC(n2nc(-c3ccc(Oc4ccccc4)cc3)c3c(N)n[nH]c(=O)c32)C1` (stereo not drawn) [Example 62], the IC50 was less than 100 nM.
In the case of `C=CC(=O)N[C@H]1CC[C@H](n2nc(-c3ccc(Oc4ccccc4)cc3)c3c(N)n[nH]c(=O)c32)CC1` [Example 63], the IC50 was less than 100 nM.
Take `CN(C)C/C=C/C(=O)N[C@H]1CC[C@@H](n2nc(-c3ccc(Oc4ccccn4)cc3)c3c(N)n[nH]c(=O)c32)CC1` [Example 64]: the IC50 was 100 to 1000 nM.
For the molecule `C=CC(=O)N[C@H]1CC[C@@H](n2nc(-c3ccc(Oc4ccccn4)cc3)c3c(N)n[nH]c(=O)c32)CC1` [Example 65], the IC50 was less than 100 nM.
Then `C=CC(=O)N1CCC[C@@H](n2nc(-c3ccc(C(=O)N4CCCC4)cc3)c3c(N)n[nH]c(=O)c32)C1` [Example 66], with less than 100 nM; and `C=CC(=O)N1CCCC(n2nc(-c3ccc(Oc4cccc(C)c4)cc3)c3c(N)n[nH]c(=O)c32)C1` (stereo not drawn) [Example 67], with 1000 to 10000 nM.
Then `C=CC(=O)N1CCCC(n2nc(-c3ccc(Oc4ccccn4)cc3)c3c(N)n[nH]c(=O)c32)C1` (stereo not drawn) [Example 68], with less than 100 nM; and `C=CC(=O)Nc1cccc(-n2nc3c(=O)[nH]nc(N)c3c2-c2ccc(Oc3ccccc3)cc2)c1` [Example 69], with less than 100 nM.
Then `C=CC(=O)N1CCCC(n2nc(-c3ccc(Oc4ccccc4)cc3)c3c(N)noc(=O)c32)C1` (stereo not drawn) [Example 70], with 1000 to 10000 nM; and `C=CC(=O)N1CCCC(n2nc(-c3ccc(Oc4ccccc4F)cc3)c3c(N)n[nH]c(=O)c32)C1` (stereo not drawn) [Example 71], with less than 100 nM.
Regarding `C=CC(=O)N1CCCC(n2nc(-c3ccc(Oc4ccccc4)nc3)c3c(N)n[nH]c(=O)c32)C1` (stereo not drawn) [Example 72], the IC50 was less than 100 nM.
For the molecule `C=CC(=O)N1CC(n2nc(-c3ccc(Oc4ccccc4)cc3)c3c(N)n[nH]c(=O)c32)C1` [Example 73], the half-inhibitory concentration (IC50) was less than 100 nM.
Turning to `C=CC(=O)N1CCC[C@@H](n2nc(-c3ccc(OC4Cc5ccccc5C4)cc3)c3c(N)n[nH]c(=O)c32)C1` [Example 74], the IC50 is less than 100 nM.
Then `CN(C)C/C=C/C(=O)N1CCC[C@@H](n2nc(-c3ccc(OC4Cc5ccccc5C4)cc3)c3c(N)n[nH]c(=O)c32)C1` [Example 75], with less than 100 nM; and `N#CC(=CC1CC1)C(=O)N1CCC[C@@H](n2nc(-c3ccc(Oc4ccccc4)cc3)c3c(N)n[nH]c(=O)c32)C1` [Example 76], with less than 100 nM.
On to `C=CS(=O)(=O)N1CCC[C@@H](n2nc(-c3ccc(Oc4ccccc4)cc3)c3c(N)n[nH]c(=O)c32)C1` [Example 77], for which the IC50 is less than 100 nM.
Take `C=CC(=O)N1CCCC(c2c3c(=O)[nH]nc(N)c3nn2-c2ccc(Oc3ccccc3)cc2)C1` (stereo not drawn) [Example 78]: the IC50 was 100 to 1000 nM.
On to `C=CC(=O)N1CCC[C@@H](n2nc(-c3ccc(OC4CCCC4)cc3)c3c(N)n[nH]c(=O)c32)C1` [Example 79], for which the IC50 is less than 100 nM.
Then `C=CC(=O)N1CCC[C@@H](n2nc(-c3ccc(OC4CCCCC4)cc3)c3c(N)n[nH]c(=O)c32)C1` [Example 80], with less than 100 nM; and `CN(C)C/C=C/C(=O)N1CCC[C@@H](n2nc(-c3ccc(Oc4ccccc4)cc3)c3c(N)n[nH]c(=O)c32)C1` [Example 81], with less than 100 nM.
Then `C=CC(=O)N(C)[C@H]1CC[C@@H](n2nc(-c3ccc(Oc4ccccc4)cc3)c3c(N)n[nH]c(=O)c32)CC1` [Example 82], with less than 100 nM; and `C=CC(=O)N[C@H]1CC[C@@H](n2nc(-c3ccc(Oc4ccccc4F)cc3)c3c(N)n[nH]c(=O)c32)CC1` [Example 83], with less than 100 nM; and `CN(C)/C=C/CC(=O)N1CCCC(n2nc(-c3ccc(Oc4ccccc4)cc3)c3c(N)n[nH]c(=O)c32)C1` (stereo not drawn) [Example 84], with less than 100 nM.
Then `C=CC(=O)N1CCCC(n2nc(-c3ccc(Oc4ccccc4)cc3)c3c(N)nn(C)c(=O)c32)C1` (stereo not drawn) [Example 85], with 100 to 1000 nM.
On to `C=CC(=O)N1CCCC(n2nc(-c3ccc(Oc4ccccc4)cc3)c3c(N)nn(CC)c(=O)c32)C1` (stereo not drawn) [Example 86], for which the IC50 is 1000 to 10000 nM.
Then `C=CC(=O)N1CCCC(n2nc(-c3ccc(Oc4ccccc4)cc3)c3c(N)nn(CC(F)(F)F)c(=O)c32)C1` (stereo not drawn) [Example 87], with 1000 to 10000 nM; and `C=CC(=O)N1CCC[C@@H](n2nc(-c3ccc(-c4nc5ccccc5o4)cc3)c3c(N)n[nH]c(=O)c32)C1` [Example 88], with less than 100 nM.
Then `C=CC(=O)N1CCC[C@@H](n2nc(-c3ccc(Oc4cc(C)ccn4)cc3)c3c(N)n[nH]c(=O)c32)C1` [Example 89], with less than 100 nM; and `C=CC(=O)N1CCC[C@@H](n2nc(-c3ccc(Oc4ccc(C)nn4)cc3)c3c(N)n[nH]c(=O)c32)C1` [Example 90], with 100 to 1000 nM; and `C=CC(=O)N1CCC[C@@H](n2nc(-c3ccc(Oc4ccc(C)cn4)cc3)c3c(N)n[nH]c(=O)c32)C1` [Example 91], with less than 100 nM.
Consider `C=CC(=O)N1CCC[C@@H](n2nc(-c3ccc(Oc4cccc(C)n4)cc3)c3c(N)n[nH]c(=O)c32)C1` [Example 92], for which the IC50 is less than 100 nM.
As for `C=CC(=O)N1CCC[C@@H](n2nc(-c3ccc(Oc4ncccc4C)cc3)c3c(N)n[nH]c(=O)c32)C1` [Example 93], the IC50 is less than 100 nM.
Consider `C=CC(=O)N1CCCC(n2nc(-c3ccc(Oc4ccccc4)cc3)c3cc4c(N)noc4cc32)C1` (stereo not drawn) [Example 107], for which the IC50 was 1000 to 10000 nM.
Then `C=CC(=O)N1CCCC(n2nc(-c3ccc(Oc4ccccc4)cc3)c3cc4c(N)ncnc4cc32)C1` (stereo not drawn) [Example 108], with 1000 to 10000 nM.
